# Patent US20020102533A1, “Hepatitis C protease exosite for inhibit or design” (priority 2000, published 2002)
# Where two headings read alike, the source gives them in different places. Where a SMILES comes first, the peptide text is derived from it. [ ]: non-standard residue; d: D form. Dip = N[C@H](C(=O)O)C(c1ccccc1)c1ccccc1; Cha = N[C@@H](CC1CCCCC1)C(=O)O
# Experiments:
# Assay type in all cases: biochemical
# [1] = target: T1, HCV NS3 protease, genotype 1a (Hepatitis C virus genotype 1a, UniProt P26664)
# T1 construct: NS3 protease catalytic domain (amino acids 1 to 192); MGAQH expression leader (5 aa), or alternatively the 15 aa His tag […]; made in house; host or cells: E. coli BL21 (DE3)
# Procedure: (§1) Endpoint HPLC based HCV protease assay: HCV protease (5 nM) was incubated in 50 mM Tris pH 7.5, 0.1% maltoside, 5 mM DTT and appropriate amounts of glycerol, NS4A peptide, and substrate. Routine assays were 100 μl in volume containing 15% or 50% glycerol, 5.0 μM NS4A peptide and 5.0 μM substrate. Reactions were run at room temperature (˜22° C.) and quenched by the addition of 4 μl of 10% TFA before 10% of the substrate was consumed. Incubation times were 20 minutes for the ester substrate (Peptide Substrate A) and 80 minutes for the P6-P7′ amide substrate (Peptide Substrate B). […] Incubation times were 90 min. Samples, 50 μl, were injected onto an Hewlett Packard 1090 Liquid Chromatograph containing a Dynamax-60A C18 column. The column was eluted with a linear gradient from 10% acetonitrile to 45% acetonitrile in water. All solvents contained 0.1% TFA. A flow rate of 1 ml/min was used. […] The product peaks were detected by fluorescence excitation at 350 nm and emission at 500 nm.
# (§2) Footnote a for Table 1 references the assay condiditions: 1) Substrate A=P6-P3′, HCV protease (4.0 nM) was incubated with various concentrations of truncated analogs of Q9692 in 50 mM Tris buffer, pH 7.0, 15% glycerol, 0.1% maltoside, 5 mM DTT and 10 μM NS4A peptide in a 96-well microtiter plate at room temperature. After 15 minutes catalysis was initiated by the addition of Ac-D-E-D(EDANS)-E-E-Abuψ[COO]-A-S-K(DABCYL)—NH2 (final concentration 5.0 μM in a total reaction volume of 200 μl). Enzymatic activity was monitored by measuring the increase in fluorescence with time on a Perkin Elmer LS50B luminescence spectrometer (excitation 350 nm, emission 500 nm, both slits 10 nm). […] Assays were 100 μl in volume, reactions were run at room temperature (˜22 C) for 80 minutes (<10% of the substrate was consumed). The addition of 4 μl of 10% TFA quenched the reactions. Quantitation of hydrolysis products was determined by measuring fluorescent peak areas following HPLC. Products were detected by excitation at 350 nm and measuring emission at 500 nm. Aliquots (50 μl) of quenched enzymatic reactions were injected on an Hewlett Packard 1090 HPLC equipped with a ¼ inch Dynamex 60A C18 column. A linear gradient from 10% acetonitrile:H2O to 45% acetonitrile:H2O was run over a period of 15 min at a flow rate of 1.0 ml/min. All solvents contained 0.1% TFA.
# Comparison of the effects of Q9692 on the hydrolysis of a P6-P3′ ester substrate (FIG. 2A) and a P6-P7′ substrate (FIG. 2B) and P6-P3′ amide substrate (FIG. 2C) were determined. For substrates A and B1 Concentrations of Q9692 are 0 (circles), 1 μM (squares), 2 μM (diamonds) and 4 μM (triangles). Assay conditions: HCV protease (5 nM) was incubated in 50 mM Tris buffer at pH 7.0, 15% glycerol, 0.1% maltoside, 5 mM DTT, 10 μM NS4A peptide, and specified concentration of substrate. Assays were 100 μl in volume and reactions were run at room temperature (22 C) and quenched by the addition of 4 μl of 10% TFA before 10% of the substrate was consumed. Incubation times were 20 minutes for the ester substrate and 80 minutes for the amide substrate. Hydrolysis products were quantitated by measuring fluorescent peak areas following HPLC and detection by excitation at 350 nm and measuring emission at 500 nm. Aliquots (50 μl) of quenched enzymatic reactions were injected on an Hewlett Packard 1090 HPLC equipped with a ¼ inch Dynamex 60A C18 column.
# HCV protease 2A = target: T2, HCV protease 2A (Hepatitis C virus genotype 2a, UniProt P26660); experiment: HCV protease type 2a, 9-mer substrate
# T2 construct: the catalytic domains of types 1b, 1J and 2a have also been examined
# Description: It is understood that other forms of HCV protease may be used in an assay for the determination of inhibitors. The present invention has disclosed the 1A form of HCV protease, however, the catalytic domains of types 1b, 1J and 2a have also been examined, as well as, the full-length version of form 1b. Evidence for the exosite exists in each case. Activation by Q9692 follows the trend of activation by NS4a. Forms of the enzyme that are more sensitive to NS4a display greater stimulation by Q9692 than forms that are less sensitive. In rank order sensitivity is 1J, 1B, 1A, and 2A. The catalytic activity of 2A toward the 9-mer substrate is enhanced by only 1.5-fold at 4 μM Q9692 and becomes inhibited by Q9692 at concentrations greater than 20 μM. […] Use of alternative forms of the HCV protease is relevent to development of an inexpensive and easy continous assay.
# [2] = target: T1, HCV NS3 protease, genotype 1a; experiment: biochemical
# Procedure: as §1
# Continuous fluorescence-based HCV protease assay: This asay was a modified version of method of Taliani (Taliani, M.; et al. Anal. Biochem. 240, 60-67, 1996) using Substrate A (Ac-D-E-D(EDANS)-E-E-Abuψ[COO]-A-S-K(DABCYL)—NH2). Assays were run in a 96-well microtiter plates using a Perkin Elmer Luminescence Spectrometer LS50B exciting at 350 nm (10 nm slit) and emitting at 500 nm (10 nm slit). In a typical assay the protease (1-4 nM) was incubated with 10 μM NS4a peptide in 50 mM Tris pH 7.0, 5.0 mM DTT, 50% glycerol, and […] for 15 min. Catalysis was initiated by the addition of Substrate A (final concentration 5.0 μM). Assays were also run under conditions where 15% glycerol, 0.1% Maltoside were substituted for 50% glycerol and 5% CHAPS. Enzymatic activity was monitored by measuring the increase in fluorescence with time using excitation wavelength of 350 nm and an emission wavelength of 500 nm. Both slit widths were 10 nm. Inhibition constants were determined from a nonlinear least squares fit of the data to the equation Vi/Vo=1/(1+[I]/Kiapp). Where Vi is the velocity measured in the presence of inhibitor (inhibitors were introduced with the NS4a peptide) and Vo is the velocity of controls. The thermodynamic Ki was determined from Kiapparent via the relationship for competitive kinetics: Ki=Kiapp/(1+[S]/Km) where [S] is the substrate concentration.
# as §2
# [3] = P6-P3′ ester substrate, 2 μM Q9692
structure (smiles),measurement,setting,value
"CC(=O)N[C@@H](CC(=O)O)C(=O)N[C@@H](CCC(=O)O)C(=O)N[C@H](C(=O)N[C@@H](CCC(=O)O)C(=O)N[C@@H](CC1CCCCC1)C(=O)N[C@@H](CS)C(=O)O)C(c1ccccc1)c1ccccc1 [Q9692, Ac-Asp-Glu-Dpa-Glu-Cha-Cys—OH] (Ac-DE[Dip]E[Cha]C-OH)",Dixon plots of 1/V versus Q9717 concentration,[1]; 5 μM substrate spanning P6-P7′,intersecting lines
same,mode of action,"[1]; P6-P7′ substrate, double reciprocal plots",competitive inhibitor
same,(S = P6-P7′) Inhibition (+) / Activation (−),[1]; substrate B,+
same,concentrations at which enzyme becomes inhibited,HCV protease 2A,greater than 20 μM
same,enhancement of catalytic activity,HCV protease 2A; 4 μM Q9692,1.5 fold
same,Dixon plots of 1/V versus Q9717 concentration,[2]; 5 μM substrate spanning P6-P3′,intersecting lines
same,concentration of maximum stimulation,[2]; P6-P3′ ester substrate,4 µM
same,concentrations at which inhibition was observed,[2]; P6-P3′ ester substrate,greater than 10.0 μM
same,kcat of substrate,[2]; [3],relatively unchanged
same,reduction in Km of substrate,[2]; [3],5 fold
same,activation of the enzyme (maximum stimulation),"[2]; P6-P3′ ester substrate, maximum at 4 μM Q9692",approximately 5 fold
same,(S = P6-P3′) Inhibition(+) / Activation (−),[2]; substrate A,−
